# Measurements taken from US10711006B2, “Selective Bruton's tyrosine kinase inhibitor and use thereof” (HANGZHOU HERTZ PHARMACEUTICAL CO., LTD., priority 2016, dated 2020).
# How the values were obtained:
# BTK Kinase = BTK Kinase (Homo sapiens (Human), UniProt Q06187); test: In-vitro Btk kinase inhibitory activity assay; format: biochemical
# Procedure: In-Vitro Btk Kinase Inhibitory Activity Assay for Compounds of the Present Invention:
# 10 μL of the 50× drug stock solution was added to a 96-well plate and then 90 μL of a 1× Kinase Buffer was added and the 96-well plate was shaken for 10 minutes on a shaker. From each well of the 96-well plate, 5 μL of the drug solution was taken and then transferred to a 384-well plate which was provided with 2 duplicate wells.
# Preparation of a 2.5× Kinase Buffer: an enzyme was added to the 1× kinase base buffer.
# Prepare a 2.5× oligopeptide solution: FAM-labeled oligopeptide and ATP were added to the 1× kinase base buffer.
# 10 μL of the 2.5× Kinase Buffer was added to the 384-well plate loaded with 5 μL of the drug solution and incubation was then carried out for 10 minutes at room temperature. 10 μL of the 2.5× oligopeptide solution was added to the 384-well plate and incubation was then carried out for 1 hour at 28° C. The reaction was stopped by adding 25 μL of a stop buffer. The readings were recorded and the inhibition rate of the compound on the enzyme was calculated. The IC50 of BTK kinase was calculated by fitting.
# [1] = system: human mantle cell lymphoma (MINO); test: In-vitro tumor cell proliferation inhibition (CCK-8), MINO; details: 72 h, read-out: Tumor cell proliferation inhibitory activity (IC50, μM) MINO
# Procedure: (§11) The in-vitro antitumor activity assay was carried out on the synthesized compound by using different solid tumors and leukemia cell lines:
# (§12) Cell lines: human lung cancer cell (A549), human mantle cell lymphoma (MINO), diffuse giant B-cell lymphoma (OCI-LY10), and human diffuse large B lymphoma (TMD-8).
# (§13) Preparation method of the drug: the drug was dissolved in DMSO to make a 10 mM stock solution, and then the stock solution was diluted in a certain ratio to obtain 5 different concentrations (test concentration 100×). In-vitro culture of tumor cells:
# (§14) The tumor cells A549, MINO, OCI-LY10, and TMD-8 were seeded in a 96-well plate at 4000 cells/200 μL/well and then incubated overnight at 37° C. in a 5% CO2 cell culture incubator. 2 μL of the compound was added to each well to final concentrations of 50 μM, 10 μM, 2 μM, 0.4 μM, and 0.08 μM and then incubated for 72 hours at 37° C. in a 5% CO2 cell incubator, with DMSO (2%) as a control group. […] Wells loaded with the corresponding amount of cell culture fluid the and CCK-8 solution but no cells were considered as blank controls. The absorbance (OD value) was measured at 450 nm using a microplate reader, and the obtained data was used to calculate IC50.
# [2] = system: diffuse giant B-cell lymphoma (OCI-LY10); test: In-vitro tumor cell proliferation inhibition (CCK-8), OCI-LY10; details: Homo sapiens, OCI-Ly10, 72 h, read-out: Tumor cell proliferation inhibitory activity (IC50, nM) OCI-LY10
# Procedure: as §11, §12, §13, §14
# [3] = system: human diffuse large B lymphoma (TMD-8); test: In-vitro tumor cell proliferation inhibition (CCK-8), TMD-8; details: TMD8, 72 h, read-out: Tumor cell proliferation inhibitory activity (IC50, nM) TMD-8
# Procedure: as §11, §12, §13, §14
# [4] = system: Mino subcutaneous xenograft tumor; test: In-vivo pharmacodynamic study on Mino subcutaneous xenograft tumor models; details: CB17 SCID mice, intragastric, twice a day
# Procedure: In CB17 SCID mice, 0.2 mL of cell suspension containing 5×10^6 Mino cells was subcutaneously inoculated into the right back of each mouse, and when the mean tumor volume reaches approximately 139.94 mm3 (day 26 after inoculation), group administration was started (intragastric administration, twice a day, 14 days in total). Animals were monitored daily for health and mortality, and tumor diameters were measured twice a week using vernier calipers to see if tumor growth could be inhibited, delayed, or cured.
# [5] = system: arthritis induced by anti-collagen antibodies and lipopolysaccharides; test: Rheumatoid arthritis model induced by anti-collagen antibodies and lipopolysaccharides; format: in vivo, Balb/c mice; details: for level of IL-1β in serum (in words): 10 mg/kg orally once a day; for level of IL-1β in serum (in words) / inflammatory cell infiltration, synovial hyperplasia, inflammatory granulation tissue formation, necrotic tissue: versus model group; for IL-1β: serum on Day 13, 10 mg/kg orally once a day Day 2 to Day 12; for inflammatory cell infiltration, synovial hyperplasia, inflammatory granulation tissue formation, necrotic tissue: tissue samples after treatment
# Procedure: In Balb/c mice, arthritis was induced by administration of anti-collagen antibodies and lipopolysaccharides (Nandakumar et al., Am. J. Pathol. 2003, 163: 1827-1837).
# The specific method was as follows: On Day 0, female Balb/c mice were intravenously injected with anti-type II collagen ChemicomAb mixture in a dose of 100 mg/kg, and on Day 1, lipopolysaccharide was intraperitoneally injected in a dose of 1.25 mg/kg. From Day 2 to Day 12, Compounds 15a, 17a, 24a and 24e were orally administered once a day in a dose of 10 mg/kg. On Day 13 after abdominal anesthesia, […] of blood was taken from the femoral artery and centrifuged at 3000 r/min for 20 minutes, serum was taken to detect IL-1β with a test kit, and related tissue samples were observed.
# [6] = system: human lung cancer cell (A549); test: In-vitro tumor cell proliferation inhibition (CCK-8), A549; details: A549, 72 h, read-out: Tumor cell proliferation inhibitory activity (IC50, μM) A549
# Procedure: as §11, §12, §13, §14
# [7] = Oral pharmacokinetic experiment in SD rats; format: in vivo; details: mean n = 3
# Procedure: SD rats were used as experimental animals and were subjected to intragastric administration in a dose of 10 mg/kg and tail-vein intravenous injection in a dose of 2 mg/kg. The tail-vein blood sampling time points in the intragastric administration were 0.17, 0.33, 0.5, 1, 1.5, 2, 4, 6, 8, 12, and 24 hours; the blood sampling time points in the intravenous administration were 0.05, 0.1, 0.17, 0.5, 1, 2, 4, 6, 8, 12, and 24 hours. 0.3 ml of whole blood was taken, and 0.1 ml of plasma after centrifugation was taken and analyzed by LC-MS.
# JAK3 = JAK3 (Homo sapiens (Human), UniProt P52333); test: Kinase selectivity experiment, JAK3; format: biochemical; details: read-out: Inhibitory activity against JAK3 (IC50)
# Sequence of JAK3 (P52333 whole entry, species assumed): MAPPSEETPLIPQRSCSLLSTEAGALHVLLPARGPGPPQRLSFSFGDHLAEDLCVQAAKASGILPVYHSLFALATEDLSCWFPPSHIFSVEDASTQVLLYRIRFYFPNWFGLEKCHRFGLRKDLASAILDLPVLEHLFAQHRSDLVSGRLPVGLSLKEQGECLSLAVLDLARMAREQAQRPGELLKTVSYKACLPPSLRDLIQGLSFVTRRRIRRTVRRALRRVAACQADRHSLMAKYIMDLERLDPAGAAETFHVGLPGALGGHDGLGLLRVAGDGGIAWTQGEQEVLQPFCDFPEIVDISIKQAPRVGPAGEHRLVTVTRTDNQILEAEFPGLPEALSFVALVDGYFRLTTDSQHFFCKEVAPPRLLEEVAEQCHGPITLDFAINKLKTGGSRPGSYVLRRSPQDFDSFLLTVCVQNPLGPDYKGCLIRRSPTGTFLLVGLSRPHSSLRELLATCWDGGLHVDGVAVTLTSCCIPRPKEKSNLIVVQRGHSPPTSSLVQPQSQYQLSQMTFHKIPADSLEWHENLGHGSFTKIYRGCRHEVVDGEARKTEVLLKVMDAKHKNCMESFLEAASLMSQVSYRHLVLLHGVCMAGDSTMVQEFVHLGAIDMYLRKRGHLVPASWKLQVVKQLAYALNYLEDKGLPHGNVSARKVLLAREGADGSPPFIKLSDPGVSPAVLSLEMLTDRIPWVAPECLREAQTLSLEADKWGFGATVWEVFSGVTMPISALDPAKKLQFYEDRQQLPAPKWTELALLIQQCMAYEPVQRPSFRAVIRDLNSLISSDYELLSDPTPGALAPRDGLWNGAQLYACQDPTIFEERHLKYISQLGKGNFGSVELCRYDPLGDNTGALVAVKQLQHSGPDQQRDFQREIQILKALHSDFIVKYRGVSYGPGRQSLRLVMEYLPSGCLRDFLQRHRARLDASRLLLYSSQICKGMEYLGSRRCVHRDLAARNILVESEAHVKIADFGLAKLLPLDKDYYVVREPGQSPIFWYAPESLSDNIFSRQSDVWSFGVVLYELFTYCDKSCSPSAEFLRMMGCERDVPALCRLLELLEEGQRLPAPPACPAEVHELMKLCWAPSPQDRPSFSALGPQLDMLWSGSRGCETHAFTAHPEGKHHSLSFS
# Procedure: (§1) A 1× kinase base buffer and a reaction stop buffer for respective kinases in the experiment were prepared as required.
# (§2) Preparation of Compounds to be Tested:
# (§3) 2) diluting each compound at a 5-fold concentration gradient in a 96-well plate to 6 to 7 concentrations and ensuring that the drug volume in each well was 10 μl; and at the same time adding 100 μl of DMSO to prepare a blank control group and also preparing a negative control group without the enzyme substrate; and
# (§4) 3) preparing another 96-well plate, adding 10 μl of each of the above compounds to 90 μl of the 1× kinase base buffer and mixing for 10 minutes to be uniform.
# (§5) Preparation of the Plate to be Tested:
# (§6) 1) 5 μl of the mixed solution prepared as above in the 96-well plate was taken and transferred to a 384-well plate, with two replicate wells for each compound.
# (§7) 1) Preparing a 2.5× kinase solution and adding a corresponding 1× kinase base buffer;
# (§8) 2) preparing a 2.5× polypeptide solution and adding FAM-labeled polypeptide and ATP in the 1× kinase base buffer; and
# (§9) 3) adding 10 μl of 2.5× kinase solution to a 384-well plate to be tested, placing in a room-temperature environment for 10 minutes, and then adding 10 μl of the 2.5× polypeptide solution, reacting at 28° C. for 1 hour, and then adding 25 μl of a reaction stop buffer.
# (§10) The Caliper program reads the plate and uses the data to obtain the IC50 values of the corresponding compounds against kinases.
# ITK = ITK (Homo sapiens (Human), UniProt Q08881); test: Kinase selectivity experiment, ITK; format: biochemical; details: read-out: Inhibitory activity against ITK (IC50)
# Sequence of ITK (Q08881 whole entry, species assumed): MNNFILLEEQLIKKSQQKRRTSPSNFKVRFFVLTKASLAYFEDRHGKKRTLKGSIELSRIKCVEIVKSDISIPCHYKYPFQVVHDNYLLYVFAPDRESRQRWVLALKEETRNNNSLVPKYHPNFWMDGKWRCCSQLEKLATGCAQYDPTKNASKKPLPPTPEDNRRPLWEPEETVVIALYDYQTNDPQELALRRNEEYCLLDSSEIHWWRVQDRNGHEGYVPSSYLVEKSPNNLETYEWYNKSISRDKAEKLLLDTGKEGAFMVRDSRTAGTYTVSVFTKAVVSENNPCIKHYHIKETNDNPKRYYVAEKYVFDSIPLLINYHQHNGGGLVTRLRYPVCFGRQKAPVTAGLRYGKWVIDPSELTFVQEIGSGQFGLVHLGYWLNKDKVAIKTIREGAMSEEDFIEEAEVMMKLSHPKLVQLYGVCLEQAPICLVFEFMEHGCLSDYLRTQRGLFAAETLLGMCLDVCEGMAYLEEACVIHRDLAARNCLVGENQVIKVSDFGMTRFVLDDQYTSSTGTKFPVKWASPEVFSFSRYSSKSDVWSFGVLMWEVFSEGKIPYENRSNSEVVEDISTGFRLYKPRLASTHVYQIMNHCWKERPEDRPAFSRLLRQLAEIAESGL
# Procedure: as §1, §2, §3, §4, §5, §6, §7, §8, §9, §10
# hERG potassium channel = hERG potassium channel (Homo sapiens (Human), UniProt Q12809); test: hERG potassium channel inhibitory activity, manual patch clamp in CHO cells; format: cell-based; details: CHO cells stably expressing hERG, whole-cell patch clamp
# Procedure: The cells used in this experiment were CHO cell lines transfected with HergCdna and stably expressing Herg channels (supplied by Sophion Bioscience, Denmark). The cells were cultured in a medium containing the following components (all from Invitrogen): Ham's F12 medium, 10% (v/v) inactivated fetal bovine serum, 100 μg/ml hygromycin B, 100 μg/ml Geneticin. […] 24 to 48 hours before an electrophysiological experiment, CHO Herg cells were transferred to circular slides placed in the culture dishes and grow with the same culture liquid under the same culture conditions as above. The density of CHO Herg cells on each circular slide was required to reach such a value that most cells were independent and stand alone.
# 2. Treatment and Dilution of a Compound
# Before the test, the compound was first diluted with DMSO at gradient to make stock solutions with concentrations of 10, 3, 1, 0.3 and 0.1 Mm and the stock solutions were then diluted with extracellular fluid to a final Mm test concentration. Except that the DMSO concentration in the 30 Mm compound test solution was 0.3%, the final concentration of DMSO in each of the compound solutions with other concentrations was 0.1%. The test concentration of a positive control Cisapridewas 0.1 Mm. All compound solutions were conventionally sonicated and shaken for 5 to 10 minutes to ensure complete dissolution of the compound.
# 3. Electrophysiological Recording System and Data Analysis
# This experiment uses a manual patch clamp system (HEKA EPC-10 signal amplifier and digital conversion system, purchased from HEKA Electronics, Germany) for the recording of whole cell currents. The circular slides with CHO Herg cells growing on the surfaces were placed in an electrophysiological recording slot under an inverted microscope. The extracellular fluid was used for continuous perfusion in the recording slot (approximately lml per minute). The experimental procedure uses a conventional whole-cell patch clamp current recording technique. Unless otherwise stated, the experiment was carried out at regular room temperature ([…]). The cells were clamped at a voltage of −80 Mv. The cell clamp voltage was depolarized to +20 Mv to activate the Herg potassium channel, and 5 seconds later, it was clamped to −50 Mv to eliminate inactivation and generate tail current. The peak of the tail current was used as the value of the Herg current. After the hERG potassium current recorded in the above step was stabilized under the continuous extracellular fluid perfusion in the recording slot, the drug to be tested can be superimposed to the perfusion until the inhibitory effect of the drug on the hERG current reaches a steady state. Generally, the criterion for determine whether or not the stable state was reached was that the recent three consecutive current recording lines were coincident. After the steady state was reached, extracellular fluid perfusion was carried out for flushing until the hERG current returns to the magnitude before the drug was added. One cell may be used for testing one or more drugs, or multiple concentrations of the same drug, and flushing with extracellular fluid was carried out between tests of different drugs. Cisapride (purchased from Sigma) was used in the experiment as a positive control to ensure that the cells used were of normal quality. The test data was analyzed by data analysis software provided by HEKA Patchmaster, Microsoft Excel and Graphpad Prism.
# FLT3 = FLT3 (Homo sapiens (Human), UniProt P36888); test: Kinase selectivity experiment, FLT3; format: biochemical; details: read-out: Inhibitory activity against FLT3 (IC50)
# Sequence of FLT3 (P36888 27-993, species assumed): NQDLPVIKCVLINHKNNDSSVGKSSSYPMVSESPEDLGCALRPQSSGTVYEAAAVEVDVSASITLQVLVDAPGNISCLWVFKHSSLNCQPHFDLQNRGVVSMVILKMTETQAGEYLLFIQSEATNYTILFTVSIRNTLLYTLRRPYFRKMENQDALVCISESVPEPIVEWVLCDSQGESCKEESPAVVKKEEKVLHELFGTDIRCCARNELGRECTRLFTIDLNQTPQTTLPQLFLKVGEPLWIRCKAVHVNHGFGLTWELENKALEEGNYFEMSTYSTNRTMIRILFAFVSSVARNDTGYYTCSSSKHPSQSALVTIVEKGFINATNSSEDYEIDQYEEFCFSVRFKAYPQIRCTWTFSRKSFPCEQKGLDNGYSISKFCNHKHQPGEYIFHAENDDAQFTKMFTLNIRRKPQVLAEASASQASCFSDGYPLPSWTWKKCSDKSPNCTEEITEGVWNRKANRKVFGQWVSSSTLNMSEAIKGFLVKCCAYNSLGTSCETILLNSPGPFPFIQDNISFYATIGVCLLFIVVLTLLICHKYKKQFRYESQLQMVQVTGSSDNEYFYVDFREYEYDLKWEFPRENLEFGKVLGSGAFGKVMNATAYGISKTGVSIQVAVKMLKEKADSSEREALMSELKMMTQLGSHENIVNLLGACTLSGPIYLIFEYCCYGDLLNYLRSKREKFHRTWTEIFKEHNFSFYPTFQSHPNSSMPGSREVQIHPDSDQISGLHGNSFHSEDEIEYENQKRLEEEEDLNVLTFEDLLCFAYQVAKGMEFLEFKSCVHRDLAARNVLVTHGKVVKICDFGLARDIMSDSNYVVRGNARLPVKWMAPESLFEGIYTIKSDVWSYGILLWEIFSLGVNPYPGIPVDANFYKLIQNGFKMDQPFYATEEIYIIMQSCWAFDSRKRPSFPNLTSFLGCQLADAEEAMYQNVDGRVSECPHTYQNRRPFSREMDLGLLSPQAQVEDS
# Procedure: as §1, §2, §3, §4, §5, §6, §7, §8, §9, §10
# FGR = FGR (Homo sapiens (Human), UniProt P09769); test: Kinase selectivity experiment, FGR; format: biochemical; details: read-out: Inhibitory activity against FGR (IC50)
# Sequence of FGR (P09769 whole entry, species assumed): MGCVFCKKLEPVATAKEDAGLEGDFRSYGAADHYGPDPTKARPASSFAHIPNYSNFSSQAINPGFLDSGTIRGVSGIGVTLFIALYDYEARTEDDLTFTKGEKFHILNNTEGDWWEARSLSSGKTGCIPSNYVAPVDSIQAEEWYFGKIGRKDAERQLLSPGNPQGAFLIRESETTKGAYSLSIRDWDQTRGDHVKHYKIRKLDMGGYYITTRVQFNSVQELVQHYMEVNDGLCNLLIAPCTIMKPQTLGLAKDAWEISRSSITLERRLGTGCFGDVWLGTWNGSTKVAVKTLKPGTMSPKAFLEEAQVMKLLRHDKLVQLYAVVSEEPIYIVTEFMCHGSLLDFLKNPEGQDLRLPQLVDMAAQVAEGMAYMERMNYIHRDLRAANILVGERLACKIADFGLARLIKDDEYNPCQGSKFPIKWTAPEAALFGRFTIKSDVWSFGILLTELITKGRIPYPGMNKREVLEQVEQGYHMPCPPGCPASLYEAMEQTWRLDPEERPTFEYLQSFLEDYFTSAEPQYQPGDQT
# Procedure: as §1, §2, §3, §4, §5, §6, §7, §8, §9, §10
# HCK = HCK (Homo sapiens (Human), UniProt P08631); test: Kinase selectivity experiment, HCK; format: biochemical; details: read-out: Inhibitory activity against HCK (IC50)
# Procedure: as §1, §2, §3, §4, §5, §6, §7, §8, §9, §10
# CSK = CSK (Homo sapiens (Human), UniProt P41240); test: Kinase selectivity experiment, CSK; format: biochemical; details: read-out: Inhibitory activity against CSK (IC50)
# Sequence of CSK (P41240 whole entry, species assumed): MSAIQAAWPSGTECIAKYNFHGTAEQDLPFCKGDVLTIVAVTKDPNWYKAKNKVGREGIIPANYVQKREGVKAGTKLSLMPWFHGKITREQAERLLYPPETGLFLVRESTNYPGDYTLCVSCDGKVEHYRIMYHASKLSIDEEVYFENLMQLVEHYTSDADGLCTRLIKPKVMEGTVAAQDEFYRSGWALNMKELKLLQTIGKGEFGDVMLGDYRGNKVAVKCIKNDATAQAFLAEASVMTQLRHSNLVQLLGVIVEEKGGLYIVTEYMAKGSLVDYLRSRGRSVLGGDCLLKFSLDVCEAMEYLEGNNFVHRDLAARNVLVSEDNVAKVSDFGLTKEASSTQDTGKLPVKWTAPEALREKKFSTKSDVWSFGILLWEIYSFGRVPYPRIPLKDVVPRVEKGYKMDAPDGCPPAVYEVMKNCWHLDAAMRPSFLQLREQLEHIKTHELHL
# Procedure: as §1, §2, §3, §4, §5, §6, §7, §8, §9, §10
# BLK = BLK (Homo sapiens (Human), UniProt P51451); test: Kinase selectivity experiment, BLK; format: biochemical; details: read-out: Inhibitory activity against BLK (IC50)
# Sequence of BLK (P51451 whole entry, species assumed): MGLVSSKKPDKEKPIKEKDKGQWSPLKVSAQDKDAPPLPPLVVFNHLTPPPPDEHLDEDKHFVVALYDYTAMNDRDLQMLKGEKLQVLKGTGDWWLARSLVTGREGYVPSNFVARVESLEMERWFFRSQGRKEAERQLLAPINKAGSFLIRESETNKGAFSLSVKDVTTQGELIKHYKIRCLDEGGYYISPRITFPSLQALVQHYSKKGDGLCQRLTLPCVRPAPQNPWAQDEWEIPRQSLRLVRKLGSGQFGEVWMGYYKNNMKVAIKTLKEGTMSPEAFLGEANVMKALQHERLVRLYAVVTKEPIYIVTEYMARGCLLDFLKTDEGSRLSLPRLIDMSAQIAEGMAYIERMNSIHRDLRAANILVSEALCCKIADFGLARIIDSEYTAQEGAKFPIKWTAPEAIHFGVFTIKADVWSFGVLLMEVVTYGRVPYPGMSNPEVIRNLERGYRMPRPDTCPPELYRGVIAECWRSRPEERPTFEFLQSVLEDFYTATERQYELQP
# Procedure: as §1, §2, §3, §4, §5, §6, §7, §8, §9, §10
# [8] = rat, plasma, oral (intragastric) 10 mg/kg
# Sequence of BTK Kinase (Q06187 whole entry): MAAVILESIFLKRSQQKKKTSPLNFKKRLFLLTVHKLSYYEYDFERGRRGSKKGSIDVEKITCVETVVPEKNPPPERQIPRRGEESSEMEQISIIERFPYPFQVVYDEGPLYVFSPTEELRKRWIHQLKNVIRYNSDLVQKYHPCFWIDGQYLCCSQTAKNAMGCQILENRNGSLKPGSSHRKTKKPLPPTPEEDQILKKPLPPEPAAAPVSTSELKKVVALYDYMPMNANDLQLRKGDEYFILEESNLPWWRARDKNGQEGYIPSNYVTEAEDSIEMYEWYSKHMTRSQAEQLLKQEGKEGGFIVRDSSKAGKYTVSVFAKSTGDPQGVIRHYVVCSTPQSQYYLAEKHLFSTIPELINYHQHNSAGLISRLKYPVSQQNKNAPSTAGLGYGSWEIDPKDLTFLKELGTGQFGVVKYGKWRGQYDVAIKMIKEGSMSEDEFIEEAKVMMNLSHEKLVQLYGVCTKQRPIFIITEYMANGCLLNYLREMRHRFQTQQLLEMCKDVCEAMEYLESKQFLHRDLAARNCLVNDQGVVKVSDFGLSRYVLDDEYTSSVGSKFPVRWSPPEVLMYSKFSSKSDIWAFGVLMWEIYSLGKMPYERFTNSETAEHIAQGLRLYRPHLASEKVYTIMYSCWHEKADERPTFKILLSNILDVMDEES
Structure (SMILES),IC50 [1],IC50 [2],IC50 [3],TGI*(14 days) (%) calculated on the basis of tumor volume [4],TGI**(14 days) (%) calculated on the basis of tumor weight [4],level of IL-1β in serum (in words) [5],IL-1β [5],"inflammatory cell infiltration, synovial hyperplasia, inflammatory granulation tissue formation, necrotic tissue [5]",IC50 [6],other results
"C=CC(=O)N1CC[C@@H](n2nc(-c3ccc(Oc4cccc(F)c4F)nc3F)c3c(N)ncnc32)C1 [Compound 24e, (R)-1-(3-(4-amino-3-(6-(2,3-difluorophenoxy)-2-fluoropyridin-3-yl)-1H-pyrazolo[3,4-d]pyrimidin-1-yl)pyrrolidin-1-yl)prop-2-en-1-one]",8.98 µM,4.02 nM,7.13 nM,68.04%,62.16%,significantly reduce,20.45 ± 5.1 ng/L,significantly improved,1.93 µM,"IC50 (BTK Kinase): 0.0018 µM; AUC0-C(ng/h/mL) ([7]; oral (intragastric) 10 mg/kg): 1620 ng·h/mL; AUC0-t (ng/h/mL) ([7]; oral (intragastric) 10 mg/kg): 1600 ng·h/mL; bioavailability ([7]; rat, plasma, oral 10 mg/kg vs intravenous 2 mg/kg): 46.1%; Cmax [7, 8]: 1440 ng/mL; Tmax [7, 8]: 0.25 h; half-life [7, 8]: 3.57 h"
"C=CC(=O)N1CCC[C@@H](n2nc(-c3ccc(Oc4ccccc4)nc3F)c3c(N)ncnc32)C1 [Compound 17a, (R)-1-(3-(4-amino-3-(2-fluoro-6-phenoxypyridin-3-yl)-1H-pyrazolo[3,4-d]pyrimidin-1-yl)piperidin-1-yl)prop-2-en-1-one]",8.62 µM,1.41 nM,5.57 nM,82.54%,74.05%,significantly reduce,17.25 ± 3.9 ng/L,significantly improved,1.67 µM,IC50 (JAK3): > 1 µM; IC50 (ITK): > 1 µM; IC50 (hERG potassium channel): 7.8 µM; IC50 (FLT3): > 1 µM; IC50 (FGR): > 1 µM; IC50 (HCK): > 1 µM; IC50 (CSK): > 1 µM; IC50 (BLK): 0.011 µM
